Results reported in patent publication US20250296959A1, “B7-H3 TARGETING PEPTIDES AND CONSTRUCTS THEREOF” (Mariana Oncology Inc., priority 2024, published 2025).
Where two headings read alike, the source gives them in different places. Starred links: 1 amine or outer side, 2 acyl side, 3 side chain; linkers in the order of their positions; H or OH if unused. Positions of bridges follow the written chain, without caps; N, C: chain ends. Non-standard residues stand in square brackets, D forms with d. Residues, ends and D or L forms follow the SMILES beside them. *: point of attachment. X2 = O=C(O)CN1CCN(CC(=O)O)CCN(CC(=O)NCCOCCOCCOCCOCC(=O)*)CCN(CC(=O)O)CC1; Ala(1-CH2CO2H-4-piperidyl) = N[C@@H](CC1CCN(CC(=O)O)CC1)C(=O)O; Ala(piperidin-4-yl) = O=C([C@H](CC1CCN([*:3])CC1)N[*:1])[*:2]; DOTA = O=C(O)CN1CCN(CC(=O)O)CCN(CC(=O)*)CCN(CC(=O)O)CC1; Trp(5-F) = N[C@@H](Cc1c[nH]c2ccc(F)cc12)C(=O)O; Ala(4-THP) = N[C@@H](CC1CCOCC1)C(=O)O; Val(3-OH) = CC(C)(O)[C@H](N)C(=O)O; hCha = N[C@@H](CCC1CCCCC1)C(=O)O; Tle = CC(C)(C)[C@H](N)C(=O)O; hLeu = CC(C)CC[C@H](N)C(=O)O; Sar = CNCC(=O)O

Legend:
human 4lg B7-H3 = molecular target: T1, human 4lg B7-H3 (Homo sapiens, UniProt Q5ZPR3); experiment: Affinity determination by surface plasmon resonance (SPR) to 4Ig B7-H3; conditions: 4Ig B7-H3
T1 sequence (Q5ZPR3 29-534): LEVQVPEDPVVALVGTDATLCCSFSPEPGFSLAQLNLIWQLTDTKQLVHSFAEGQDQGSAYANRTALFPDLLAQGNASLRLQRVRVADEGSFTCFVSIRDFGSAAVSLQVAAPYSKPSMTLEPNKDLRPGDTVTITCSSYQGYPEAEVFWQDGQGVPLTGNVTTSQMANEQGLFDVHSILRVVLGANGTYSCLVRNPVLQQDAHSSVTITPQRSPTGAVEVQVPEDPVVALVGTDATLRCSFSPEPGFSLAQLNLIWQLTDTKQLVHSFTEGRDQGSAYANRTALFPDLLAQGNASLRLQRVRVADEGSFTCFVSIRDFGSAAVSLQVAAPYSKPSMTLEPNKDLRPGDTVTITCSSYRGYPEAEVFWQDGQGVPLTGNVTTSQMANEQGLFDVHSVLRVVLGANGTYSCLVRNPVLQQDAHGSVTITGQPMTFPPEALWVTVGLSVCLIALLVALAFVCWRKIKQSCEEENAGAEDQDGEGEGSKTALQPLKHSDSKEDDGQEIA

Calu-6 cell line [1] = experiment: Net internalization of [177Lu]Lu-labeled peptide in Calu-6 cells; format: cell-based, Human; conditions: 1 hour, 37° C., glycine pH 2.5 acid wash
In short: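 Calu-6 cells, human non-engineered lung cancer expressing B7-H3, resuspended in 1% PBSA at 5 million cells/mL and incubated with the 177Lu-labeled conjugate (labeled at 80 °C, pH ~5, RP-HPLC checked). Gamma counting of the bound fraction, then of the pellet after two glycine pH 2.5 acid strips and NaOH lysis, gives internalized activity.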

Calu-6 cell line [2] = experiment: Cell associated (bound) fraction of [177Lu]Lu-labeled peptide in Calu-6 cells; format: cell-based, Human; conditions: 1 hour, 37° C.
In short: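 Detached B7-H3-expressing human lung cancer cells at 5 million/mL were exposed for 1 hour at 37 °C to 0.8 μCi of the 177Lu-labelled peptide, which was formulated in 1% PBSA after labelling at 80 °C, pH ~5. Supernatant and two cold washes counted as unbound, and resuspended cells gamma-counted as the cell-associated fraction.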

[3] = SPR KD—25° C., 25° C. flow cell temperature
[4] = SPR KD—37° C., 37° C. flow cell temperature
[5] = read-out: SPR KD—37° C., 37° C. flow cell temperature

Row | SMILES | Kd (human 4lg B7-H3; [3]) | % net internalization (Calu-6 cell line [1]) | % cell associated fraction (Calu-6 cell line [2]) | Kd (human 4lg B7-H3; [4]) | Kd (human 4lg B7-H3; [5])
1 | CC[C@H](C)[C@@H]1NC(=O)[C@@H](NC(=O)[C@H](Cc2ccc(O)cc2)NC(=O)[C@H](CCC(C)C)NC(C)=O)CSSC[C@@H](C(=O)N[C@@H](Cc2c[nH]c3ccc(F)cc23)C(=O)N[C@@H](Cc2ccccc2)C(=O)N[C@H](C(=O)N[C@H](CCCCNC(=O)COCCOCCOCCOCCNC(=O)CN2CCN(CC(=O)O)CCN(CC(=O)O)CCN(CC(=O)O)CC2)C(=O)O)C(C)(C)O)NC(=O)[C@H](Cc2ccc(O)cc2)NC(=O)[C@H](C(C)C)NC(=O)[C@H](CC(=O)O)NC(=O)[C@H](CC2CCOCC2)NC(=O)[C@H](CCCCN)NC(=O)CNC1=O [compound 308, Ac-hLeu-Y-C-Ile-G-K-ThpA-D-V-Y-C-5FW-F-hydroxyVal-dLys(PEG4-DOTA)-COOH] (Ac-[hLeu]YCIGK[Ala(4-THP)]DVYC[Trp(5-F)]F[Val(3-OH)][dK](X2)-OH; disulfide 3-11) | < 1 nM | B (25<%≤50) | C (%>50) | – | –
2 | CC(=O)N[C@@H](CCC(C)C)C(=O)N[C@@H](Cc1ccc(O)cc1)C(=O)N[C@H]1CSSC[C@@H](C(=O)N[C@@H](Cc2c[nH]c3ccc(F)cc23)C(=O)N[C@@H](Cc2ccccc2)C(=O)N[C@H](C(=O)N[C@H](CCCCNC(=O)COCCOCCOCCOCCNC(=O)CN2CCN(CC(=O)O)CCN(CC(=O)O)CCN(CC(=O)O)CC2)C(=O)O)C(C)(C)O)NC(=O)[C@H](Cc2ccc(O)cc2)NC(=O)[C@H](C(C)C)NC(=O)[C@H](CC(=O)O)NC(=O)[C@H](CC2CCOCC2)NC(=O)[C@H](CCCCN)NC(=O)CNC(=O)[C@H](C(C)(C)C)NC1=O [compound 310, Ac-hLeu-Y-C-Tbg-G-K-ThpA-D-V-Y-C-5FW-F-hydroxyVal-dLys(PEG4-DOTA)-COOH] (Ac-[hLeu]YC[Tle]GK[Ala(4-THP)]DVYC[Trp(5-F)]F[Val(3-OH)][dK](X2)-OH; disulfide 3-11) | < 1 nM | B (25<%≤50) | C (%>50) | < 1 nM | –
3 | CC[C@H](C)[C@@H]1NC(=O)[C@@H](NC(=O)[C@H](Cc2ccc(O)cc2)NC(=O)[C@H](CCC(C)C)NC(C)=O)CSSC[C@@H](C(=O)N[C@@H](Cc2c[nH]c3ccc(F)cc23)C(=O)N[C@@H](Cc2ccccc2)C(=O)N[C@H](C(=O)N[C@H](CCCCNC(=O)CN2CCN(CC(=O)O)CCN(CC(=O)O)CCN(CC(=O)O)CC2)C(=O)O)C(C)(C)O)NC(=O)[C@H](Cc2ccc(O)cc2)NC(=O)[C@H](C(C)C)NC(=O)[C@H](CC(=O)O)NC(=O)[C@H](CC2CCOCC2)NC(=O)[C@H](CC2CCN(CC(=O)O)CC2)NC(=O)CNC1=O [compound 318, Ac-hLeu-Y-C-Ile-G-[Pip(CH2CO2H)Ala]-ThpA-D-V-Y-C-5FW-F-hydroxyVal-dLys(DOTA)-COOH] (Ac-[hLeu]YCIG[Ala(1-CH2CO2H-4-piperidyl)][Ala(4-THP)]DVYC[Trp(5-F)]F[Val(3-OH)][dK](DOTA)-OH; disulfide 3-11) | – | A (%≤25) | B (25<%≤50) | – | 1 to 10 nM
4 | CC(=O)N[C@@H](CCC(C)C)C(=O)N[C@@H](Cc1ccc(O)cc1)C(=O)N[C@H]1CSSC[C@@H](C(=O)N[C@@H](Cc2c[nH]c3ccc(F)cc23)C(=O)N[C@@H](Cc2ccccc2)C(=O)N[C@H](C(N)=O)C(C)(C)O)NC(=O)[C@H](Cc2ccc(O)cc2)NC(=O)[C@H](C(C)C)NC(=O)[C@H](CC(=O)O)NC(=O)[C@H](CC2CCOCC2)NC(=O)[C@H](CCCCNC(=O)CN2CCN(CC(=O)O)CCN(CC(=O)O)CCN(CC(=O)O)CC2)NC(=O)CNC(=O)[C@H](C(C)(C)C)NC1=O [compound 338, Ac-hLeu-Y-C-Tbg-G-Lys(DOTA)-ThpA-D-V-Y-C-5FW-F-hydroxyVal-CONH2] (Ac-[hLeu]YC[Tle]GK(DOTA)[Ala(4-THP)]DVYC[Trp(5-F)]F[Val(3-OH)]-NH2; disulfide 3-11) | – | A (%≤25) | B (25<%≤50) | – | 1 to 10 nM
5 | CC(=O)N[C@@H](CCC(C)C)C(=O)N[C@@H](Cc1ccc(O)cc1)C(=O)N[C@H]1CSSC[C@@H](C(=O)N[C@@H](Cc2c[nH]c3ccc(F)cc23)C(=O)N[C@@H](Cc2ccccc2)C(=O)N[C@H](C(=O)N[C@H](CCCCNC(=O)CN2CCN(CC(=O)O)CCN(CC(=O)O)CCN(CC(=O)O)CC2)C(=O)O)C(C)(C)O)NC(=O)[C@H](Cc2ccc(O)cc2)NC(=O)[C@H](C(C)C)NC(=O)[C@H](CC(=O)O)NC(=O)[C@H](CC2CCOCC2)NC(=O)[C@H](CC2CCN(CC(=O)O)CC2)NC(=O)CNC(=O)[C@H](C(C)(C)C)NC1=O [compound 339, Ac-hLeu-Y-C-Tbg-G-[Pip(CH2CO2H)Ala]-ThpA-D-V-Y-C-5FW-F-hydroxyVal-dLys(DOTA)-COOH] (Ac-[hLeu]YC[Tle]G[Ala(1-CH2CO2H-4-piperidyl)][Ala(4-THP)]DVYC[Trp(5-F)]F[Val(3-OH)][dK](DOTA)-OH; disulfide 3-11) | – | B (25<%≤50) | C (%>50) | – | < 1 nM
6 | CC(=O)N[C@@H](CCC(C)C)C(=O)N[C@@H](Cc1ccc(O)cc1)C(=O)N[C@H]1CSSC[C@@H](C(=O)N[C@@H](Cc2c[nH]c3ccc(F)cc23)C(=O)N[C@@H](Cc2ccccc2)C(=O)N[C@H](C(=O)N[C@H](CCCCNC(=O)CN2CCN(CC(=O)O)CCN(CC(=O)O)CCN(CC(=O)O)CC2)C(=O)O)C(C)(C)O)NC(=O)[C@H](Cc2ccc(O)cc2)NC(=O)[C@H](C(C)C)NC(=O)[C@H](CC(=O)O)NC(=O)[C@H](CC2CCOCC2)NC(=O)[C@H](CC2CCNCC2)NC(=O)CNC(=O)[C@H](C(C)(C)C)NC1=O [compound 340, Ac-hLeu-Y-C-Tbg-G-PipAla-ThpA-D-V-Y-C-5FW-F-hydroxyVal-dLys(DOTA)-COOH] (Ac-[hLeu]YC[Tle]G[Ala(piperidin-4-yl)][Ala(4-THP)]DVYC[Trp(5-F)]F[Val(3-OH)][dK](DOTA)-OH; disulfide 3-11) | – | A (%≤25) | C (%>50) | – | < 1 nM
7 | CC(=O)N[C@@H](CCC(C)C)C(=O)N[C@@H](Cc1ccc(O)cc1)C(=O)N[C@H]1CSSC[C@@H](C(=O)N[C@@H](Cc2c[nH]c3ccc(F)cc23)C(=O)N[C@@H](Cc2ccccc2)C(=O)N[C@H](C(=O)N[C@H](CCCCNC(=O)CN2CCN(CC(=O)O)CCN(CC(=O)O)CCN(CC(=O)O)CC2)C(=O)O)C(C)(C)O)NC(=O)[C@H](Cc2ccc(O)cc2)NC(=O)[C@H](C(C)C)NC(=O)[C@H](CC(=O)O)NC(=O)[C@H](CC2CCOCC2)NC(=O)[C@H](CCCCN)NC(=O)CN(C)C(=O)[C@H](C(C)(C)C)NC1=O [compound 348, Ac-hLeu-Y-C-Tbg-Sar-K-ThpA-D-V-Y-C-5FW-F-hydroxyVal-dLys(DOTA)-COOH] (Ac-[hLeu]YC[Tle][Sar]K[Ala(4-THP)]DVYC[Trp(5-F)]F[Val(3-OH)][dK](DOTA)-OH; disulfide 3-11) | – | A (%≤25) | B (25<%≤50) | – | < 1 nM
8 | CC(=O)N[C@@H](CCC(C)C)C(=O)N[C@@H](Cc1ccc(O)cc1)C(=O)N[C@H]1CSSC[C@@H](C(=O)N[C@@H](Cc2c[nH]c3ccc(F)cc23)C(=O)N[C@@H](Cc2ccccc2)C(=O)N[C@H](C(=O)N[C@H](CCCCNC(=O)CN2CCN(CC(=O)O)CCN(CC(=O)O)CCN(CC(=O)O)CC2)C(N)=O)C(C)(C)O)NC(=O)[C@H](Cc2ccc(O)cc2)NC(=O)[C@H](C(C)C)NC(=O)[C@H](CC(=O)O)NC(=O)[C@H](CC2CCOCC2)NC(=O)[C@H](CCCCN)NC(=O)CNC(=O)[C@H](C(C)(C)C)NC1=O [compound 366, Ac-hLeu-Y-C-Tbg-G-K-ThpA-D-V-Y-C-5FW-F-hydroxyVal-dLys(DOTA)-CONH2] (Ac-[hLeu]YC[Tle]GK[Ala(4-THP)]DVYC[Trp(5-F)]F[Val(3-OH)][dK](DOTA)-NH2; disulfide 3-11) | – | A (%≤25) | B (25<%≤50) | < 1 nM | –
9 | CC(=O)N[C@@H](CCC1CCCCC1)C(=O)N[C@@H](Cc1ccc(O)cc1)C(=O)N[C@H]1CSSC[C@@H](C(=O)N[C@@H](Cc2c[nH]c3ccc(F)cc23)C(=O)N[C@@H](Cc2ccccc2)C(=O)N[C@H](C(=O)N[C@H](CCCCNC(=O)CN2CCN(CC(=O)O)CCN(CC(=O)O)CCN(CC(=O)O)CC2)C(=O)O)C(C)(C)O)NC(=O)[C@H](Cc2ccc(O)cc2)NC(=O)[C@H](C(C)C)NC(=O)[C@H](CC(=O)O)NC(=O)[C@H](CC2CCOCC2)NC(=O)[C@H](CCCCN)NC(=O)CNC(=O)[C@H](C(C)(C)C)NC1=O [compound 368, Ac-hCha-Y-C-Tbg-G-K-ThpA-D-V-Y-C-5FW-F-hydroxyVal-dLys(DOTA)-COOH] (Ac-[hCha]YC[Tle]GK[Ala(4-THP)]DVYC[Trp(5-F)]F[Val(3-OH)][dK](DOTA)-OH; disulfide 3-11) | – | A (%≤25) | B (25<%≤50) | < 1 nM | –
